# Measurements taken from ChEMBL document CHEMBL5230096, “A comprehensive insight on the recent development of Cyclic Dependent Kinase inhibitors as anticancer agents” (Eur J Med Chem, 2020).
# What was measured:
# HCT-116 = test: Anticancer activity against human HCT-116 cells assessed as reduction in cell viability incubated for 48 hrs by MTT assay; type: functional, cell-based; settings: HCT-116, 48 h
# MCF7 [1] = test: Anticancer activity against human MCF7 cells assessed as reduction in cell viability incubated for 48 hrs by MTT assay; type: functional, cell-based; settings: MCF7, 48 h
# [2] = biological target: T1, Cyclin-dependent kinase 2 (Homo sapiens, UniProt P24941); test: Inhibition of human CDK2 using TMB as substrate preincubated for 210 mins followed by substrate addition and measured after 15 to 25 mins by spectrophotometric analysis
# MCF7 [3] = test: Antiproliferative activity against human MCF7 cells assessed as reduction in cell proliferation incubated for 48 hrs by Sulfo-Rhodamine-B stain (SRB) assay; type: functional, cell-based; settings: MCF7, 48 h
# CDK2/Cyclin A2 [4] = biological target: T2, CDK2/Cyclin A2 (Homo sapiens, UniProt P24941); test: Inhibition of CDK2/cyclin A2 (unknown origin) using histone as substrate in presence of ATP by luminescent ADP detection assay; type: protein-complex assay
# [5] = test system: Human immunodeficiency virus 1; test: Antiviral activity against HIV1; type: functional, organism-based
# [6] = biological target: T1, Cyclin-dependent kinase 2
# Description: Inhibition of CDK2 (unknown origin)
# K562 = test: Antiproliferative activity against human K562 cells assessed as reduction in cell proliferation incubated for 3 days by calcein AM staining based fluorescent analysis; type: functional; settings: K562, 72 h
# [7] = biological target: Cyclin-dependent kinase 2/cyclin E1 (Homo sapiens, UniProt P24941); test: Inhibition of CDK2/cyclin E1 (unknown origin) expressed in Sf9 cells using histone H1 as substrate in presence of ATP by microplate reader analysis
# MCF7 [8] = test: Antiproliferative activity against human MCF7 cells assessed as reduction in cell proliferation incubated for 3 days by calcein AM staining based fluorescent analysis; type: functional; settings: MCF7, 72 h
# HeLa = test: Antiproliferative activity against human Hela cells assessed as reduction in cell viability by MTT assay; type: functional, cell-based
# [9] = test system: Panel NCI-60 (60 carcinoma cell lines); test: Antiproliferative activity against human Panel NCI-60 (60 carcinoma cell lines) cells assessed as inhibition of cell growth at 0.00001 M incubated for 48 hrs by sulforhodamine B assay; type: functional; parameters: scale not given: the % may be the effect or the level left; settings: dose 10 µM
# [10] = test system: Panel NCI-60 (60 carcinoma cell lines); test: Antiproliferative activity against human Panel NCI-60 (60 carcinoma cell lines) assessed as reduction in cell viability at 10 uM; type: functional
# CDK2/Cyclin A2 [11] = biological target: T2, CDK2/Cyclin A2; test: Inhibition of CDK2/Cyclin A2 (unknown origin) incubated for 40 mins in presence of ATP by Kinase-Glo Plus luminescence kinase assay; type: protein-complex assay
# [12] = biological target: CDK2/Cyclin A2 (Homo sapiens) (UniProt P24941+P20248); test: Inhibition of CDK2/Cyclin A2 (unknown origin) at 10 uM incubated for 40 mins in presence of ATP by Kinase-Glo Plus luminescence kinase assay; type: protein-complex assay
# [13] = biological target: Cyclin-dependent kinase 2/cyclin E (Homo sapiens, UniProt P24941); test: Inhibition of CDK2/Cyclin E (unknown origin) expressed in baculovirus infected Sf9 cells using histone H1 as substrate in presence of gamma32P-ATP by scintillation counter analysis
# B16-F10 = test: Antiproliferative activity against mouse B16-F10 cells assessed reduction in cell proliferation; type: functional, cell-based
# MCF7 [14] = test: Antiproliferative activity against human MCF7 cells assessed reduction in cell proliferation; type: functional, cell-based
# Histone deacetylase = test: Inhibition of HDAC (unknown origin); type: protein assay, Homo sapiens
# CDK9/cyclin T1 = CDK9/cyclin T1 (Homo sapiens, UniProt P50750); test: Inhibition of CDK9/cyclin T1 (unknown origin) assessed as inhibition constant; type: protein-complex assay
# HepG2 = test: Antiproliferative activity against human HepG2 cells assessed as reduction in cell viability by MTT assay; type: functional, cell-based
# MCF7 [15] = test: Antiproliferative activity against human MCF7 cells assessed as reduction in cell viability by MTT assay; type: functional, cell-based
# A549 = test: Antiproliferative activity against human A549 cells assessed as reduction in cell viability by MTT assay; type: functional, cell-based
# Caco-2 = test: Antiproliferative activity against human Caco-2 cells assessed as reduction in cell viability by MTT assay; type: functional, cell-based
# MCF7 [16] = test: Cytotoxicity against human MCF7 cells assessed as reduction in cell viability by MTT assay; type: functional, cell-based
# CDK9/cyclin T1, sequence (O60563 whole entry): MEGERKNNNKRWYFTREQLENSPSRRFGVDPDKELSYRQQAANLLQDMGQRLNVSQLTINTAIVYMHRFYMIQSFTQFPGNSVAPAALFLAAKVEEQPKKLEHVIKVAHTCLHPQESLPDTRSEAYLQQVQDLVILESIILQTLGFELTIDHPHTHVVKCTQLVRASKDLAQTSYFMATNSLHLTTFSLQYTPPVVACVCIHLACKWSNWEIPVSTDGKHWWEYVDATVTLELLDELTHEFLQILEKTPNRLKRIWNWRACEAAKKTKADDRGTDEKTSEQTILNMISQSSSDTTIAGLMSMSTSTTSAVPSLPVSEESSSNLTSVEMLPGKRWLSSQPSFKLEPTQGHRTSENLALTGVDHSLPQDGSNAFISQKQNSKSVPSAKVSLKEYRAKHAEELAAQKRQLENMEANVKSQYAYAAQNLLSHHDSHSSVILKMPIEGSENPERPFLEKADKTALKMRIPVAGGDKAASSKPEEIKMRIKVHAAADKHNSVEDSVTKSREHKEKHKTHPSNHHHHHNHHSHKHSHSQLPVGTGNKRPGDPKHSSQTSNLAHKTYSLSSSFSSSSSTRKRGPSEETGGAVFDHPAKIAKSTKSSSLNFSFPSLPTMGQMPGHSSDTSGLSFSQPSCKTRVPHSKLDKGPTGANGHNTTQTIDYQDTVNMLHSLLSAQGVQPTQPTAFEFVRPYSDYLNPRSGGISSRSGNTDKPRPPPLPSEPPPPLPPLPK
# CDK9/cyclin T1, sequence (P50750 whole entry): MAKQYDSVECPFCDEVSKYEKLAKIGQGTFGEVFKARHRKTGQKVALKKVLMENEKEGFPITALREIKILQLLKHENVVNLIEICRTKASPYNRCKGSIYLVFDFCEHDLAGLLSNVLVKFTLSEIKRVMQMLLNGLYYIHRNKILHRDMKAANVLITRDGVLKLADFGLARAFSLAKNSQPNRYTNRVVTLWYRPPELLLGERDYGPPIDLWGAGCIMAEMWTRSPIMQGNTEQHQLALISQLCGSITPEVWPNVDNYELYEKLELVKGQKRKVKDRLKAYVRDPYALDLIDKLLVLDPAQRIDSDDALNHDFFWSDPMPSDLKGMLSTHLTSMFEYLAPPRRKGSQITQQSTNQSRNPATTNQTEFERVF
smiles,measurement,setting,value
CC(=O)C(=NNc1ccc(-c2nc3ncccc3[nH]2)cc1)C(C)=O,IC50,HCT-116,1.69 µM
same,IC50,MCF7 [1],2.11 µM
Cc1ccc(S(=O)(=O)Nc2ccc(-c3ccnc(Nc4ccc(S(=O)(=O)Nc5nccc(C)n5)cc4)c3C#N)cc2)cc1,IC50,[2],1.79 µM
same,IC50,MCF7 [3],18.3 µM
CN1CCN(C(=O)c2cnn(-c3cc(NCc4ccccc4)ncn3)c2)CC1,IC50,CDK2/Cyclin A2 [4],< 0.02 µM
O=C(c1ccccc1)N1C(=O)C(C2C(=O)N(C(=O)c3ccccc3)C(=S)N(c3ccc(F)cc3)C2=O)C(=O)N(c2ccc(F)cc2)C1=S (stereo not given),IC50,[5],2.7 µM
same,IC50,[6],5.2 µM
Nc1ccc(/N=N/c2ccc(-c3nc4ncccc4[nH]3)cc2)cc1,IC50,HCT-116,1.83 µM
same,IC50,MCF7 [1],2.84 µM
CCCCCSc1nc(OC(=O)CC(C)(C)C)c2cn[nH]c2n1,IC50,K562,19.8 µM
same,IC50,[7],16.9 µM
same,IC50,MCF7 [8],18.9 µM
O=C(c1cnn(-c2cc(NCc3ccccc3)ncn2)c1)N1CCOCC1,IC50,CDK2/Cyclin A2 [4],< 0.02 µM
O=C(Nc1ccc(O)cc1)c1cnn(-c2cc(NCc3ccccc3)ncn2)c1,IC50,CDK2/Cyclin A2 [4],< 0.02 µM
CCOC(=O)C1=C(Cn2cc(COc3ccccc3C3NC(=O)NC(CCl)=C3C(=O)OCC)nn2)NC(=O)NC1c1ccc([N+](=O)[O-])cc1 (stereo not given),IC50,HeLa,18 µM
CCCCCSc1nc(OC(=O)c2ccco2)c2cn[nH]c2n1,IC50,K562,19.8 µM
same,IC50,[7],21.2 µM
same,IC50,MCF7 [8],18.9 µM
COc1ccc(-n2c(-c3ccccc3)c(-c3ccccc3)c3c(SCC(=O)N/N=C\c4ccccc4[N+](=O)[O-])ncnc32)cc1,Activity,[9],<50%
CCOC(=O)CSc1ncnc2c1c(-c1ccccc1)c(-c1ccccc1)n2-c1ccc(C)cc1,Activity,[9],<50%
O=[N+]([O-])c1cccc(Nc2nc(SCCc3ccccc3)nc3[nH]ncc23)c1,IC50,K562,19.9 µM
same,IC50,[7],8.7 µM
same,IC50,MCF7 [8],19.2 µM
C[C@@H](CO)Nc1nc(N)c(N=O)c(OCC2CCCCC2)n1,IC50,[6],0.16 µM
Cc1ccc(-n2cc(-c3ccccc3)c3c(SCC(=O)N/N=C\c4ccccc4[N+](=O)[O-])ncnc32)cc1,Activity,[9],<50%
O=C(NCCc1ccccc1)c1cnn2c(-c3ccc(Cl)cc3)nc(NCCc3ccccc3)nc12,inhibition at 10 µM,[10],33.3%
same,IC50,CDK2/Cyclin A2 [11],1.85 µM
same,inhibition,[12],82%
Cc1ccc(S(=O)(=O)Nc2ccc(-c3ccnc(Nc4ccc(S(=O)(=O)Nc5cc(C)no5)cc4)c3C#N)cc2)cc1,IC50,MCF7 [3],20.4 µM
O=C(Oc1nc(SCCc2ccccc2)nc2[nH]ncc12)c1cc2ccccc2o1,IC50,K562,19.8 µM
same,IC50,MCF7 [8],18.9 µM
O=c1[nH]cc(-c2cccc(F)c2F)c2nccn12,IC50,[13],4.8 µM
NS(=O)(=O)c1ccc(S(=O)(=O)Nc2cccc3c(Cl)c[nH]c23)cc1,IC50,MCF7 [3],36.3 µM
COc1ccc(-n2c(-c3ccccc3)c(-c3ccccc3)c3c(SCC(=O)N/N=C\c4ccc(N(C)C)cc4)ncnc32)cc1,Activity,[9],<50%
O=C(CCCn1cc(CNC2CC2)c(-c2ccccc2)n1)NO,IC50,B16-F10,2.53 µM
same,IC50,MCF7 [14],2.96 µM
same,IC50,Histone deacetylase,2.76 µM
same,IC50,[6],3.7 µM
COc1ccc(C2CC(c3c(O)c4ccccc4oc3=O)=NN2c2ccccc2)cc1OC (stereo not given),Ki,CDK9/cyclin T1,0.00326 µM
CCCCCSc1nc(OC(=O)c2cc3ccccc3o2)c2cn[nH]c2n1,IC50,K562,19.8 µM
same,IC50,[7],8.8 µM
same,IC50,MCF7 [8],18.9 µM
CCOC(=O)C1=C(C)n2nc(Nc3ccccc3)c(C(N)=O)c2NC1c1ccc(F)cc1 (stereo not given),IC50,HepG2,24.2 µM
same,IC50,MCF7 [15],14.1 µM
same,IC50,A549,30 µM
same,IC50,Caco-2,29.3 µM
Nc1ccc(-c2nc3ncccc3[nH]2)cc1,IC50,HCT-116,3.06 µM
same,IC50,MCF7 [1],0.71 µM
C[C@@H](CO)Nc1nc(N)c(/[N+]([O-])=N/C#N)c(OCC2CCCCC2)n1,IC50,[6],0.3 µM
O=C(CCn1cc(COC(=O)c2c[nH]c3ccccc23)nn1)NC(CC(=O)c1cc2ccccc2oc1=O)c1ccccc1Cl (stereo not given),IC50,MCF7 [16],17.5 µM
